{"source": "patent US20230287389A1", "about": "“A METHOD FOR GENERATING NEW MUTATION IN ORGANISM AND USE THEREOF” (Qingdao Kingagroot Chemical Compound Co., Ltd., priority 2019, published 2023)", "key": {"[1]": {"system": "T1 generation OsACCase2 W2038L edited seedlings", "experiment": "Resistance test of T1 generation OsACCase2 W2038L edited seedlings to ACCase inhibitor herbicides", "assay_type": "in vivo, Oryza sativa", "details": "for Resistance of OsACCase2 W2038L mutant strain: field concentrations", "procedure": "After the propagation of the TO strain containing the W2038L mutation, the T1 generation mutant seedlings were tested for herbicide resistance with quizalofop-p and haloxyfop-p in field concentrations."}, "[2]": {"system": "T1 generation OsALS W548 site and OsSWEET14 double-site edited seedlings", "experiment": "Resistance test of T1 generation OsALS W548L edited seedlings to ALS inhibitor herbicides", "assay_type": "in vivo, Oryza sativa", "details": "for Resistance of OsALS W548L mutant strain: field concentrations", "procedure": "After the propagation of TO strains in which the occurrence of OsALS W548L mutation was detected, the T1 generation mutant seedling strains were tested for herbicide resistance with pyroxsulam, imazapic, nicosulfuron and flucarbazone-Na at field concentrations."}, "Arabidopsis thaliana": {"system": "Arabidopsis thaliana", "experiment": "Selection of Arabidopsis thaliana seedlings on imazapic medium", "assay_type": "in vivo", "procedure": "After the seeds of the T1 strain were harvested from single plant, the seeds of different strains of two vectors were selected and spread on the imazapic selection medium (MS medium+0.24 μg/mL imazapic) to perform selection, and the positive seedlings were transplanted to the soil one week later and subjected to molecular detection, in which the method was the same as step 5."}}}
{"compound": "C[C@@H](Oc1ccc(Oc2cnc3cc(Cl)ccc3n2)cc1)C(=O)O", "note": "[quizalofop-p]", "values": [{"measurement": "Resistance of W2038L edited strains QY367-5-10 and QY367-5-21", "setting": "[1]; 5 g/mu active ingredient of quizalofop-p", "value": "developed resistance"}, {"measurement": "Resistance of OsACCase2 W2038L mutant strain", "setting": "[1]", "value": "significantly resistant"}]}
{"compound": "COc1cc(OC)nc(NC(=O)NS(=O)(=O)c2ncccc2C(=O)N(C)C)n1", "note": "[nicosulfuron]", "values": [{"measurement": "Resistance of W548L edited strain QY360-7-11", "setting": "[2]; 4 g/mu active ingredient of nicosulfuron", "value": "developed resistance"}, {"measurement": "Resistance of OsALS W548L mutant strain", "setting": "[2]", "value": "significant resistance"}]}
{"compound": "Cc1cnc(C2=NC(=O)C(C)(C(C)C)N2)c(C(=O)O)c1", "note": "(stereo not drawn) [imazapic]", "values": [{"measurement": "Response of W574M edited T1 plant to imazapic treatment", "setting": "Arabidopsis thaliana; Example 3", "value": "showed resistance"}, {"measurement": "Growth of wild-type Col-0 on imazapic resistant medium", "setting": "Arabidopsis thaliana; MS medium + 0.24 μg/mL imazapic", "value": "could not grow"}, {"measurement": "Growth of positive plants of the mutant strains on imazapic resistant medium", "setting": "Arabidopsis thaliana; MS medium + 0.24 μg/mL imazapic, T2", "value": "could grow normally"}, {"measurement": "Resistance of W548L edited strain QY360-7-11", "setting": "[2]; 7 g/mu active ingredient of imazapic", "value": "developed resistance"}, {"measurement": "Resistance of OsALS W548L mutant strain", "setting": "[2]", "value": "significant resistance"}]}
{"compound": "COc1cc(OC)n2nc(NS(=O)(=O)c3c(C(F)(F)F)ccnc3OC)nc2n1", "note": "[pyroxsulam]", "values": [{"measurement": "Resistance of W548L edited strains QY360-7-2 and QY360-7-11", "setting": "[2]; 2 g/mu active ingredient of pyroxsulam", "value": "developed resistance"}, {"measurement": "Resistance of OsALS W548L mutant strain", "setting": "[2]", "value": "significant resistance"}]}
{"compound": "COc1nn(C(=O)[N-]S(=O)(=O)c2ccccc2OC(F)(F)F)c(=O)n1C.[Na+]", "note": "[flucarbazone-Na]", "values": [{"measurement": "Resistance of W548L edited strain QY360-7-9", "setting": "[2]; 2 g/mu active ingredient of flucarbazone-Na", "value": "developed resistance"}, {"measurement": "Resistance of OsALS W548L mutant strain", "setting": "[2]", "value": "significant resistance"}]}
{"compound": "C[C@@H](Oc1ccc(Oc2ncc(C(F)(F)F)cc2Cl)cc1)C(=O)O", "note": "[Haloxyfop-p]", "values": [{"measurement": "Resistance of W2038L edited strains QY367-7-12 and QY367-7-18", "setting": "[1]; 5 g/mu active ingredient of Haloxyfop-p", "value": "developed resistance"}, {"measurement": "Resistance of OsACCase2 W2038L mutant strain", "setting": "[1]", "value": "significantly resistant"}]}
